Results published in patent publication EP4600258A1, “KERATIN YK93-6, PREPARATION METHOD THEREFOR, PHARMACEUTICAL COMPOSITION THEREOF, AND USE THEREOF” (INSTITUTE OF MATERIA MEDICA, CHINESE ACADEMY OF MEDICAL …, priority 2022, dated 2024).
Counter-ions that a name gives are not always drawn.

Experiments:
EL-4 lymphoma = conditions: single time
Protocol: Subcutaneous inoculation of EL-4 cell suspension to replicate a mouse lymphoma model: The EL-4 tumor tissue was ground into a suspension using a glass homogenizer, the tumor suspension was aspirated with a syringe, the number of live cells was calculated, the cell concentration was adjusted to 2.0*10^6/ml with physiological saline, and then the suspension was injected into the left armpit of mice with 0.2 ml/mouse. […] On the day of treatment, weight was measured, 20µl of blood was obtained from the orbital blood and the routine blood analysis was performed.
The data from the groups were compared with each other by T.TEST, and P<0.05 was considered as a significant difference.

mouse pain model = experiment: Pharmacodynamic test on mouse pain model (acetic acid-induced writhing); type: in vivo, Male Kunming mice; conditions: dose 50mg/kg; writhing within 15 minutes after 1% acetic acid intraperitoneally
[1] = 100 mg/kg intraperitoneal, blood routine test, P<0.05

| SMILES | leukocytes (EL-4 lymphoma; [1]) | lymphocytes (EL-4 lymphoma; [1]) | monocytes (EL-4 lymphoma; [1]) | neutrophils (EL-4 lymphoma; [1]) | Tumor weight (EL-4 lymphoma; dose 0.1 g/kg, intraperitoneal) [g] | Number of writhing (mouse pain model) |
| --- | --- | --- | --- | --- | --- | --- |
| O=P1(N(CCCl)CCCl)NCCCO1 (stereo not drawn) [cyclophosphamide, Cyclophosphamide] | significantly reduced | significantly reduced | significantly reduced | significantly reduced | 0.12 ± 0.03 | – |
| COc1cccc(C2(O)CCCCC2CN(C)C)c1 (stereo not drawn) [Tramadol Hydrochloride] | – | – | – | – | – | 0.375±0.74 |
